± gives the expanded uncertainty stated by the source.
Conditions: Liquid, Ebulliometric method (Recirculating still)

Structure (SMILES): CC1COC(C)O1 (centres undefined) [2,4-dimethyl-1,3-dioxolane]
- vapor or sublimation pressure (298 K): 8.89 ± 4 kPa
- vapor or sublimation pressure (303 K): 11.17 ± 4 kPa
- vapor or sublimation pressure (308 K): 13.9 ± 4 kPa
- vapor or sublimation pressure (313 K): 17.17 ± 4 kPa
- vapor or sublimation pressure (318 K): 21.04 ± 4 kPa
- vapor or sublimation pressure (323 K): 25.62 ± 4 kPa
- vapor or sublimation pressure (328 K): 30.97 ± 4 kPa
- vapor or sublimation pressure (333 K): 37.21 ± 4 kPa
- vapor or sublimation pressure (338 K): 44.43 ± 4 kPa
- vapor or sublimation pressure (343 K): 52.75 ± 4 kPa
- vapor or sublimation pressure (348 K): 62.29 ± 4 kPa
- vapor or sublimation pressure (353 K): 73.16 ± 4 kPa
- vapor or sublimation pressure (358 K): 85.51 ± 4 kPa
- vapor or sublimation pressure (363 K): 99.46 ± 4 kPa
- vapor or sublimation pressure (366 K): 99 ± 9.9 kPa

Structure (SMILES): CC1OCCO1 [2-methyl-1,3-dioxolane]
- vapor or sublimation pressure (298 K): 11.29 ± 4 kPa
- vapor or sublimation pressure (303 K): 14.2 ± 4 kPa
- vapor or sublimation pressure (308 K): 17.72 ± 4 kPa
- vapor or sublimation pressure (313 K): 21.98 ± 4 kPa
- vapor or sublimation pressure (318 K): 27.07 ± 4 kPa
- vapor or sublimation pressure (323 K): 33.15 ± 4 kPa
- vapor or sublimation pressure (328 K): 40.35 ± 4 kPa
- vapor or sublimation pressure (333 K): 48.83 ± 4 kPa
- vapor or sublimation pressure (338 K): 58.78 ± 4 kPa
- vapor or sublimation pressure (343 K): 70.39 ± 4 kPa
- vapor or sublimation pressure (348 K): 83.87 ± 4 kPa
- vapor or sublimation pressure (353 K): 99.46 ± 4 kPa
- vapor or sublimation pressure (356 K): 99 ± 9.9 kPa

Structure (SMILES): O [water]
- vapor or sublimation pressure (373 K): 99 ± 9.9 kPa

Source: the NIST ThermoML archive (doi:10.1021/je025534p)
